Experimental data reported in US20230183193A1, “4-DIFLUOROMETHYL BENZOYL AMIDES WITH HERBICIDAL ACTION” (BAYER CROPSCIENCE AKTIENGESELLSCHAFT, priority 2017, published 2023).

Key:
Assay type in all cases: in vivo
Abutilon theophrasti [1] = test: Post-emergence herbicidal action, ABUTH; conditions: 80 g/ha, Table D
Method in brief: (§1)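 Post-emergence spray; one-leaf stage (2–3 wk after sowing), sandy loam, greenhouse. WP/EC in water, 600 to […], +0.2% wetting agent. Visual % damage vs untreated at ~3 wk; 100% = plants dead.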

Pharbitis purpureum = test: Post-emergence herbicidal action, PHBPU; conditions: 80 g/ha, Table D
Method in brief: as §1

Stellaria media [2] = test: Post-emergence herbicidal action, STEME; conditions: 80 g/ha, Table D
Method in brief: as §1

Amaranthus retroflexus [3] = test: Post-emergence herbicidal action, AMARE; conditions: 80 g/ha, Table D
Method in brief: as §1

Avena fatua [4] = test: Pre-emergence herbicidal action, AVEFA; conditions: dosage 320 g/ha, scored visually after 3 weeks vs untreated controls
Method in brief: (§2)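 Percent herbicidal activity rated by eye 3 weeks after pre-emergence soil-surface application, compared with untreated pots. Seeds sat under sandy loam; sprays carried 0.2% wetting agent.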

Avena fatua [5] = test: Post-emergence herbicidal action, AVEFA; conditions: 80 g/ha, Table C
Method in brief: as §1

Setaria viridis [6] = test: Pre-emergence herbicidal action, SETVI; conditions: dosage 320 g/ha, scored visually after 3 weeks vs untreated controls
Method in brief: as §2

ECHCG = test: Post-emergence herbicidal action, ECHCG; conditions: 80 g/ha, Table C
Method in brief: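 Weed and crop plants grown in sandy loam in the greenhouse, treated at the one-leaf stage 2–3 weeks after sowing. Damage scored visually after about 3 weeks vs untreated controls (0% = control, 100% = dead).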

Cyperus serotinus = test: Pre-emergence herbicidal action, CYPES; conditions: dosage 320 g/ha, scored visually after 3 weeks vs untreated controls
Method in brief: as §2

Alopecurus myosuroides [7] = test: Pre-emergence herbicidal action, ALOMY; conditions: dosage 320 g/ha, scored visually after 3 weeks vs untreated controls
Method in brief: as §2

Stellaria media [8] = test: Pre-emergence herbicidal action, STEME; conditions: dosage 320 g/ha, scored visually after 3 weeks vs untreated controls
Method in brief: as §2

Abutilon theophrasti [9] = test: Pre-emergence herbicidal action, ABUTH; conditions: dosage 320 g/ha, scored visually after 3 weeks vs untreated controls
Method in brief: as §2

Amaranthus retroflexus [10] = test: Pre-emergence herbicidal action, AMARE; conditions: dosage 320 g/ha, scored visually after 3 weeks vs untreated controls
Method in brief: as §2

Setaria viridis [11] = test: Post-emergence herbicidal action, SETVI; conditions: 80 g/ha, Table C
Method in brief: as §1

Alopecurus myosuroides [12] = test: Post-emergence herbicidal action, ALOMY; conditions: 80 g/ha, Table C
Method in brief: as §1

Matricaria inodora = test: Pre-emergence herbicidal action, MATIN; conditions: dosage 320 g/ha, scored visually after 3 weeks vs untreated controls
Method in brief: as §2

Viola tricolor [13] = test: Post-emergence herbicidal action, VIOTR; conditions: 80 g/ha, Table D
Method in brief: as §1

Viola tricolor [14] = test: Pre-emergence herbicidal action, VIOTR; conditions: dosage 320 g/ha, scored visually after 3 weeks vs untreated controls
Method in brief: as §2

| SMILES | herbicidal activity ABUTH (Abutilon theophrasti [1]) [%] | Herbicidal activity PHBPU (Pharbitis purpureum) [%] | Herbicidal activity STEME (Stellaria media [2]) [%] | herbicidal activity AMARE (Amaranthus retroflexus [3]) [%] | herbicidal activity AVEFA (Avena fatua [4]) [%] | herbicidal activity AVEFA (Avena fatua [5]) [%] | herbicidal activity SETVI (Setaria viridis [6]) [%] | Herbicidal activity ECHCG (ECHCG) [%] | herbicidal activity CYPES (Cyperus serotinus) [%] | herbicidal activity ALOMY (Alopecurus myosuroides [7]) [%] | Herbicidal activity STEME (Stellaria media [8]) [%] | herbicidal activity ABUTH (Abutilon theophrasti [9]) [%] | herbicidal activity AMARE (Amaranthus retroflexus [10]) [%] | herbicidal activity SETVI (Setaria viridis [11]) [%] | herbicidal activity ALOMY (Alopecurus myosuroides [12]) [%] | herbicidal activity MATIN (Matricaria inodora) [%] | herbicidal activity VIOTR (Viola tricolor [13]) [%] | herbicidal activity VIOTR (Viola tricolor [14]) [%] |
| --- | --- | --- | --- | --- | --- | --- | --- | --- | --- | --- | --- | --- | --- | --- | --- | --- | --- | --- |
| CCc1c(C(=O)Nc2nnnn2CC)ccc(C(F)F)c1S(=O)(=O)CC [Example 2-18] | 100 | 100 | 100 | 100 | 100 | 100 | 100 | 90 | 90 | 100 | 100 | 100 | 100 | 90 | 80 | 100 | 100 | 100 |
| CCc1c(C(=O)Nc2nnnn2C)ccc(C(F)F)c1S(=O)(=O)CC [Example 1-18] | 100 | 90 | 100 | 100 | 100 | 100 | 100 | 90 | 100 | 100 | 100 | 100 | 100 | 100 | 90 | 100 | 100 | 100 |
| CCn1nnnc1NC(=O)c1ccc(C(F)F)c([S+](C)[O-])c1C1CC1 (stereo not drawn) [Example 2-26] | 90 | 90 | 100 | 100 | 100 | 100 | 100 | 100 | 90 | 100 | 100 | 100 | 100 | 100 | 90 | 100 | 100 | 100 |
| CCc1c(C(=O)Nc2nnc(C)o2)ccc(C(F)F)c1S(C)(=O)=O [Example 7-13] | 100 | 100 | 100 | 100 | 100 | 100 | 100 | 100 | 100 | 100 | 100 | 100 | 100 | 100 | 90 | 100 | 100 | 100 |
| CCc1c(C(=O)Nc2nnnn2C)ccc(C(F)F)c1[S+](C)[O-] (stereo not drawn) [Example 1-14] | 100 | 90 | 100 | 90 | 100 | 90 | 100 | 100 | 100 | 100 | 100 | 100 | 100 | 100 | 90 | 100 | 90 | 100 |
